In the assay the test system is BDF1 mice, B16 melanoma ip, median survival T/C. Nature of the assay: NCI In Vivo Anticancer Drug Screen. Data for tumor model B16 Melanoma (intraperitoneal) in B6D2F1 (BDF1) mice. Conditions: endpoint: median survival time, higher = longer survival. An outline of the steps:
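Values are ratios of treated (T) to vehicle-control (C) measurements of survival or tumor size in tumor-bearing mice.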

Setting [1] is: dose: 6.25 mg/kg/injection, schedule: Q01DX009 (ip), vehicle: saline.
Where [2] appears, read: dose: 12.5 mg/kg/injection, schedule: Q01DX009 (ip), vehicle: saline.
[3] abbreviates: dose: 25.0 mg/kg/injection, schedule: Q01DX009 (ip), vehicle: saline.
The mark [4] stands for this setting: dose: 50.0 mg/kg/injection, schedule: Q01DX009 (ip), vehicle: saline.
[5] abbreviates: dose: 6.25 mg/kg/injection, schedule: Q01DX009 (ip), vehicle: saline with Tween-80.
Where [6] appears, read: dose: 12.5 mg/kg/injection, schedule: Q01DX009 (ip), vehicle: saline with Tween-80.
Where [7] appears, read: dose: 25.0 mg/kg/injection, schedule: Q01DX009 (ip), vehicle: saline with Tween-80.
[8] abbreviates: dose: 50.0 mg/kg/injection, schedule: Q01DX009 (ip), vehicle: Klucel (hydroxypropylcellulose) (HPC).
Setting [9] is: dose: 100.0 mg/kg/injection, schedule: Q01DX009 (ip), vehicle: Klucel (hydroxypropylcellulose) (HPC).
The mark [10] stands for this setting: dose: 200.0 mg/kg/injection, schedule: Q01DX009 (ip), vehicle: Klucel (hydroxypropylcellulose) (HPC).
[11] abbreviates: dose: 100.0 mg/kg/injection, schedule: Q04DX003 (ip), vehicle: saline with Tween-80.
Setting [12] is: dose: 200.0 mg/kg/injection, schedule: Q04DX003 (ip), vehicle: saline with Tween-80.
The mark [13] stands for this setting: dose: 50.0 mg/kg/injection, schedule: Q01DX009 (ip), vehicle: saline with Tween-80.
Where [14] appears, read: dose: 100.0 mg/kg/injection, schedule: Q01DX009 (ip), vehicle: saline with Tween-80.
[15] abbreviates: dose: 200.0 mg/kg/injection, schedule: Q01DX009 (ip), vehicle: saline with Tween-80.
Setting [16] is: dose: 400.0 mg/kg/injection, schedule: Q01DX009 (ip), vehicle: Klucel (hydroxypropylcellulose) (HPC).
The mark [17] stands for this setting: dose: 25.0 mg/kg/injection, schedule: Q01DX009 (ip), vehicle: water.
The mark [18] stands for this setting: dose: 100.0 mg/kg/injection, schedule: Q01DX009 (ip), vehicle: water.
The mark [19] stands for this setting: dose: 100.0 mg/kg/injection, schedule: Q01DX009 (ip), vehicle: saline.
The mark [20] stands for this setting: dose: 200.0 mg/kg/injection, schedule: Q01DX009 (ip), vehicle: saline.

Each structure is given as a SMILES string. Values joined by “and” are separate entries in the source; they are usually repeats but may differ in a detail not shown here. Equal entries are not always repeated. Toxic doses and inconclusive results are not listed.

For the compound `CC1(C)C(=O)NC(=O)C1(C)C`, the T/C reads like this: under setting [1], 92 % of control; under setting [2], 96 % of control; under setting [3], 95 % of control; under setting [4], 90 % of control.

With `[Cl][Pt+2][Cl].[NH-]c1ccc(Cl)cc1[NH-]`, the T/C is 108 % of control (dose: 2.5 mg/kg/injection, schedule: Q01DX009 (ip), vehicle: saline with Tween-80); 153 % of control (dose: 20.0 mg/kg/injection, schedule: Q01DX009 (ip), vehicle: saline with Tween-80); 123 % of control (dose: 40.0 mg/kg/injection, schedule: Q01DX009 (ip), vehicle: saline with Tween-80).

Regarding `C#CC(OC(=O)NC1CCCCC1)(c1ccccc1)c1ccccc1`, the T/C is 105 % of control under setting [5], 100 % of control under setting [6] and 113 % of control under setting [7].

For the compound `CC(=O)CC(C)=O.CC(=O)CC(C)=O.CC(=O)CC(C)=O.[Cr]`, the T/C by setting is: under setting [8], 96 % of control; under setting [9], 97 % of control; under setting [10], 90 % of control.

Consider `CC1(C)c2ccccc2C(C)(O)c2ccccc21`, for which the T/C was 102 % of control (dose: 50.0 mg/kg/injection, schedule: Q04DX003 (ip), vehicle: saline with Tween-80); 111 % of control under setting [11]; 94 % of control under setting [12].

Take `CCOC(Cl)CCl` (centres undefined): the T/C was 97 % of control under setting [6] and 102 % of control under setting [7].

Regarding `CSCCC1NC(=O)C(/C(C)=N\NC(N)=O)=C1O` (centres undefined), the T/C is, setting by setting: under setting [7], 111 % of control; under setting [13], 105 % of control; under setting [14], 96 % of control; under setting [15], 96 % of control.

As for `Cc1ccc(Nc2ccc([N+](=O)[O-])cc2[N+](=O)[O-])cc1C`, the T/C under setting [9] is 98 % of control, the T/C under setting [10] is 97 % of control and the T/C under setting [16] is 96 % of control.

For the compound `Cc1sc2ccc(Cl)cc2[n+]1CCC(=O)O`, the T/C was 105 % of control under setting [11]; 107 % of control under setting [12]; 105 % of control (dose: 400.0 mg/kg/injection, schedule: Q04DX003 (ip), vehicle: saline with Tween-80).

Regarding `c1ccc([P+](C[P+](c2ccccc2)(c2ccccc2)c2ccccc2)(c2ccccc2)c2ccccc2)cc1`, the T/C reads like this: (dose: 0.75 mg/kg/injection, schedule: Q01DX009 (ip), vehicle: saline) 87 % of control; (dose: 1.5 mg/kg/injection, schedule: Q01DX009 (ip), vehicle: saline) 93 % of control.

In the case of `Cc1ccc(C(=O)/C=C/c2ccccc2)cc1`, the T/C is 100 % of control (dose: 25.0 mg/kg/injection, schedule: Q01DX009 (ip), vehicle: other); 105 % of control (dose: 50.0 mg/kg/injection, schedule: Q01DX009 (ip), vehicle: other); 107 % of control (dose: 100.0 mg/kg/injection, schedule: Q01DX009 (ip), vehicle: other); 100 % of control (dose: 200.0 mg/kg/injection, schedule: Q01DX009 (ip), vehicle: other).

Take `CC1CC(=O)c2ccccc2N1S(C)(=O)=O` (centres undefined): the T/C (dose: 100.0 mg/kg/injection, schedule: Q04DX003 (ip), vehicle: Klucel (hydroxypropylcellulose) (HPC)) is 102 % of control; the T/C (dose: 200.0 mg/kg/injection, schedule: Q04DX003 (ip), vehicle: Klucel (hydroxypropylcellulose) (HPC)) is 100 % of control; the T/C (dose: 400.0 mg/kg/injection, schedule: Q04DX003 (ip), vehicle: Klucel (hydroxypropylcellulose) (HPC)) is 95 % of control.

Take `[Cl][Pt+2][Cl].[NH-]C1CCCCC1.[NH-]C1CCCCC1`: the T/C runs as follows: (dose: 6.25 mg/kg/injection, schedule: Q01DX009 (ip), vehicle: Klucel (hydroxypropylcellulose) (HPC)) 105 % of control; (dose: 12.5 mg/kg/injection, schedule: Q01DX009 (ip), vehicle: Klucel (hydroxypropylcellulose) (HPC)) 110 % of control; (dose: 25.0 mg/kg/injection, schedule: Q01DX009 (ip), vehicle: Klucel (hydroxypropylcellulose) (HPC)) 92 % of control and 117 % of control; under setting [8], 97 % of control.

In the case of `FC(F)(F)c1ccc2c(c1)N(CCCN1CCN(CCOc3ccccc3)CC1)c1ccccc1S2`, where the note is “dose: 2.0 mg/kg/injection, schedule: Q01DX009 (ip), vehicle: saline”, the T/C was 121 % of control.

Take `COc1ccc(NC(=S)Nc2ccc(OC)cc2)cc1`: the T/C under setting [9] is 106 % of control, the T/C under setting [10] was 96 % of control and the T/C under setting [16] is 93 % of control.

As to `O=C1C=C(c2ccccc2)C(O)(c2ccccc2)C1` (centres undefined), the T/C under setting [13] was 97 % of control, the T/C under setting [14] was 97 % of control and the T/C under setting [15] is 88 % of control.

Take `O=P1(NCCCl)OCCCN1CCCl` (centres undefined): the T/C by setting is: under setting [2], 109 % of control; under setting [3], 103 % of control and 111 % of control and 119 % of control; under setting [17], 104 % of control and 121 % of control; (dose: 25.0 mg/kg/injection, schedule: Q02DX009 (ip), vehicle: saline) 100 % of control and 107 % of control; (dose: 25.0 mg/kg/injection, schedule: Q02DX009 (ip), vehicle: water) 114 % of control; under setting [4], 90 % of control and 111 % of control and 116 % of control. Further, the T/C was 124 % of control (dose: 50.0 mg/kg/injection, schedule: Q02DX009 (ip), vehicle: water); 169 % of control under setting [18]; 122 % of control (dose: 200.0 mg/kg/injection, schedule: Q02DX009 (ip), vehicle: water).

With `CC1(C)CC1(Br)Br`, the T/C was 112 % of control under setting [5]; 110 % of control under setting [6]; 118 % of control under setting [7]; 102 % of control under setting [13]; 110 % of control under setting [14].

Take `CC(C(=O)N1c2ccccc2Sc2ccccc21)[N+]1(C)CCCC1` (centres undefined): the T/C (dose: 3.12 mg/kg/injection, schedule: Q01DX009 (ip), vehicle: saline) is 93 % of control; the T/C under setting [1] is 93 % of control; the T/C under setting [2] is 95 % of control; the T/C under setting [3] is 91 % of control; the T/C under setting [4] was 100 % of control.

In the case of `COC(=O)c1c(C)cc(OC(=O)c2c(C)c(Cl)c(O)c(Cl)c2O)cc1O`, the T/C is 97 % of control (dose: 5.0 mg/kg/injection, schedule: Q01DX009 (ip), vehicle: Klucel (hydroxypropylcellulose) (HPC)); 94 % of control (dose: 10.0 mg/kg/injection, schedule: Q01DX009 (ip), vehicle: Klucel (hydroxypropylcellulose) (HPC)); 100 % of control (dose: 20.0 mg/kg/injection, schedule: Q01DX009 (ip), vehicle: Klucel (hydroxypropylcellulose) (HPC)).

In the case of `CCC1C(=O)NC(=O)C1(C)c1ccccc1` (centres undefined), the T/C under setting [3] is 105 % of control, the T/C under setting [4] is 108 % of control, the T/C under setting [19] is 100 % of control and the T/C under setting [20] is 100 % of control.

Turning to `COC1=C(O)C(C(O)CO)OC1=O` (centres undefined), the T/C is 99 % of control under setting [19]; 110 % of control under setting [20]; 108 % of control (dose: 400.0 mg/kg/injection, schedule: Q01DX009 (ip), vehicle: saline).

Regarding `CCCCNC(=O)Nc1ccc(C(=O)OCCCC)cc1`, the T/C reads like this: under setting [13], 96 % of control; under setting [14], 95 % of control; under setting [15], 93 % of control.

For the compound `COc1cc2cnccc2cc1O`, the T/C is 104 % of control (dose: 12.5 mg/kg/injection, schedule: Q01DX009 (ip), vehicle: water); 102 % of control under setting [17]; 103 % of control (dose: 50.0 mg/kg/injection, schedule: Q01DX009 (ip), vehicle: water); 109 % of control under setting [18].

The values above are taken from PubChem BioAssay AID192 (DTP/NCI, 2004).
